Measurements from BindingDB's records for PubMed 33873056 (California Institute of Technology, 2021).
pIC50: −log10 of the molar value.

Molecular target: Transitional endoplasmic reticulum ATPase (Homo sapiens) (UniProt P55072)
Experiment: Inhibition of p97 (unknown origin) expressed in Escherichia coli BL21 (DE3) preincubated for 10 mins followed by ATP addition measured for 30 to 120 mins by malachite green based assay

Transitional endoplasmic reticulum ATPase (Homo sapiens), sequence (P55072 whole entry, looked up): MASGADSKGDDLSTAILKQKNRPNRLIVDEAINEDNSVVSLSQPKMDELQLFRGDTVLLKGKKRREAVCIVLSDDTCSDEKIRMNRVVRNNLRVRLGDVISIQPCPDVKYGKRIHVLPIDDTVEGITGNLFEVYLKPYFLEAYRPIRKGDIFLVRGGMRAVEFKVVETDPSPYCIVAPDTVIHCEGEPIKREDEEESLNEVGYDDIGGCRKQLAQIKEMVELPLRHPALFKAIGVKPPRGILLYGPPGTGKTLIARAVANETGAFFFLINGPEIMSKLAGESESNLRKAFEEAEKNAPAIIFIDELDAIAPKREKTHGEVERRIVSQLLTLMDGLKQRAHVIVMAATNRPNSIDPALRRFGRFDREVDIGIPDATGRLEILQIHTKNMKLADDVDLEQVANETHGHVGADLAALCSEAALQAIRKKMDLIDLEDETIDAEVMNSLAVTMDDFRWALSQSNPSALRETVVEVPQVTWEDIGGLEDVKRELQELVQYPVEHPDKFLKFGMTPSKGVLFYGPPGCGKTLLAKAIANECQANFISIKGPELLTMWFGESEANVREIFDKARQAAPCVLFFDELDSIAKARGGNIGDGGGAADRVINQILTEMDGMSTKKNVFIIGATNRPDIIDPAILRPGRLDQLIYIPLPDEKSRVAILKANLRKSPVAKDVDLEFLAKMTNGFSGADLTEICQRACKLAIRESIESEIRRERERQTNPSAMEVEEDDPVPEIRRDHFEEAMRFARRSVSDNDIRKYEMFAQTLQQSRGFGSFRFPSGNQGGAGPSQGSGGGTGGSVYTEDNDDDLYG

**Q.** How did the pIC50 turn out when `C[C@H]1CCC/C=C/C(=O)c2c(O)cc(O)cc2CC(=O)O1` [DEHYDROCURVULARIN] was run?
**A.** Its pIC50 is 4.82.
